Laboratory results published in patent US20160281133A1, “STABILIZATION AND ISOLATION OF EXTRACELLULAR NUCLEIC ACIDS” (QIAGEN GMBH, priority 2013, published 2016).
Structures can show the parent of a compound that is named as a salt. Where a SMILES comes first, the peptide text is derived from it. The star is where a group is joined. Cbz = O=C(OCc1ccccc1)*

What was measured:
caspase-3 = molecular target: T1, caspase-3 (Homo sapiens, UniProt P42574); settings: cited from earlier work
T1 sequence (P42574 29-175 limits assumed): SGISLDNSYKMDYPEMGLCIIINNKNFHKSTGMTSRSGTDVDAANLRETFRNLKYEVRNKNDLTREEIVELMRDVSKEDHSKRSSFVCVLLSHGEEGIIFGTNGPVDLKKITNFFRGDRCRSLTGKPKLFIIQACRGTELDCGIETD
T1 sequence (P42574 176-277 limits assumed): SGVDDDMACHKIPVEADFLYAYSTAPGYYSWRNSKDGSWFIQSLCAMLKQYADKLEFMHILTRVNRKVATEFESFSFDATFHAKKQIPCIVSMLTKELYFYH

caspase-1 = molecular target: T2, caspase-1 (Homo sapiens, UniProt P29466); settings: cited from earlier work
T2 sequence (P29466 120-297 limits assumed): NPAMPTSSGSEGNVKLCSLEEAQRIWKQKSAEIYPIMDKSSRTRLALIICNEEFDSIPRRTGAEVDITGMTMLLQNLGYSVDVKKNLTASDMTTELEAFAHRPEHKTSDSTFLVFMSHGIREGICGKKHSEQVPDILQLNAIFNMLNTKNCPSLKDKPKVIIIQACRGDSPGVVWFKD
T2 sequence (P29466 317-404 limits assumed): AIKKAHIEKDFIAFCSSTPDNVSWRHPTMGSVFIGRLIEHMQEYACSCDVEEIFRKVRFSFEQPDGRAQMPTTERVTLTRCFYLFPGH

whole blood samples [1] = assay: 18S DNA duplex real time PCR assay, increase of DNA in plasma of stored blood, example 5; format: cell-based, human; settings: 20 μM caspase inhibitor in whole blood; storage at RT
whole blood samples [2] = assay: DNA size distribution by chip gel electrophoresis (blood cell stability/DNA release); format: cell-based, human; settings: 20 μM in 10 ml K2E blood; day 3 and day 7
Method: To separate the blood plasma from the whole blood, the blood samples were centrifuged for 15 min at 5000 rpm, and the obtained plasma samples were again centrifuged for 10 min at 16.000×g at 4° C.
The circulating, extracellular nucleic acids were purified from the obtained plasma samples using the QIAamp® Circulating NA Kit (QIAGEN, according to the handbook). In brief: • 10 ml sample input; • lysis: 1 ml Proteinase K and 8 ml Buffer ACL (QIAGEN) • binding: 18 ml Buffer ACB (QIAGEN) • wash-steps: unchanged and according to handbook • elution in 60 μl Buffer AVE (QIAGEN)
1.3.1 Measurement of the blood cell stability/DNA release by the determination of DNA size distribution using a chip gel electrophoresis (2100 Bioanalyzer; Agilent Technologies; Inc., USA) according to manufacturer's instruction (see handbook Agilent DNA 7500 and DNA 12000 Kit Guide), but 1.5 μl instead of 1 μl sample were transferred to the wells.
Each tested caspase inhibitor was added to whole blood samples (20 μM end concentration in 10 ml blood; blood was collected into Vacutainer K2E Tubes; BD). The whole blood sample was processed as described in section 1 (plasma preparation and nucleic acid isolation).
The eluted circulating cell-free DNA was separated by size using chip gel electrophoresis (for details on the method see above). […]

cells = settings: even at extremely high concentrations; cited from earlier work
HeLa cell mitochondria = settings: at 5 μM; cited from earlier work
[3] = molecular target: N-SMase (neutral sphingomyelinase); settings: rat brain; cited from earlier work
MCF7 breast cancer cells = settings: at 20 μM; cited from earlier work
calpain II = molecular target: T3, calpain II (Homo sapiens, UniProt P17655); settings: cited from earlier work
T3 sequence (P17655 1-700): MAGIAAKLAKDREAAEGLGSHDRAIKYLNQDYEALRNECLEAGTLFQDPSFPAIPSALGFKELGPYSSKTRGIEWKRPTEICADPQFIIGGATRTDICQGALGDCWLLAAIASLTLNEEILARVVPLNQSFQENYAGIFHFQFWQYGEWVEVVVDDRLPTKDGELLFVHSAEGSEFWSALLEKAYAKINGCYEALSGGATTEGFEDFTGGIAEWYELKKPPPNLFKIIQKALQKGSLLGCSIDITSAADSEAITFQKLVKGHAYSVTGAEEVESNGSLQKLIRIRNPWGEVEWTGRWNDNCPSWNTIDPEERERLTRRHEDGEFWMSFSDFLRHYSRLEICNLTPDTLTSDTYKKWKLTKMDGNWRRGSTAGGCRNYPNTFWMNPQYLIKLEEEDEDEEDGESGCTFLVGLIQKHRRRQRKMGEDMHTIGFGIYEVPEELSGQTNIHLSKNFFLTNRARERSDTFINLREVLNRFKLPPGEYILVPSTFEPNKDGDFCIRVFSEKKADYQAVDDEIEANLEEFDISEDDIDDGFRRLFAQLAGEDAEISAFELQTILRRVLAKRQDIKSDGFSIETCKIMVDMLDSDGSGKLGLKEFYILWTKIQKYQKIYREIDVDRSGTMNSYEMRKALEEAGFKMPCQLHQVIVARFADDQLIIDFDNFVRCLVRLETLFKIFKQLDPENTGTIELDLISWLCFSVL
T3 sequence (P04632 1-268 partner): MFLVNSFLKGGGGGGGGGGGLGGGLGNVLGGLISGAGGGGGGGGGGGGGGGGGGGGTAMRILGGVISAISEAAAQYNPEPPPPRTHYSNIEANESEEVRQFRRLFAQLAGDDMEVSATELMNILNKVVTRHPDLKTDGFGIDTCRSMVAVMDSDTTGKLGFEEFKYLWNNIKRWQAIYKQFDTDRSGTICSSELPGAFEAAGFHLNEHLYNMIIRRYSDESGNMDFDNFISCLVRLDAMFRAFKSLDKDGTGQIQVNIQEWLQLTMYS

cathepsin L = cathepsin L (Homo sapiens, UniProt P07711); settings: cited from earlier work
Sequence of cathepsin L (P07711 114-333, species assumed): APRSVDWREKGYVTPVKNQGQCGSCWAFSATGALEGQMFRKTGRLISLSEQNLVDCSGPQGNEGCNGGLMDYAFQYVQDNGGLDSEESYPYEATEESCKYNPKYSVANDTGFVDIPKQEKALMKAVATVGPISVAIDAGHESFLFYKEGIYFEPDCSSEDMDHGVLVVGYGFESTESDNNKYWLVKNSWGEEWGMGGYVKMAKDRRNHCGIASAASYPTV

[4] = in neuron culture medium at 37° C.; cited from earlier work
white blood cells = assay: 18S rDNA qPCR (66 bp / 500 bp): release of genomic DNA into plasma of stored stabilized blood, examples 1-4; format: cell-based, human
Method: Blood from two different donors was collected into 10 ml K2 EDTA tubes (BD). 4.5 ml of the respectively collected blood was mixed with 0.9 ml of two different stabilization solutions A and B. Said stabilization solutions contained (per ml of stabilization solution):
A: 34.2 mg K2 EDTA and 0.15 g or 0.18 g butanamide in water When using stabilization solution A, the following final concentration in the blood/stabilization mixture was obtained: 7.2 mg K2 EDTA/ml and 2.5% (w/v) or 3% (w/v) butanamide. […] When using stabilization solution B, the following final concentration in the blood/stabilization mixture was obtained: 7.2 mg K2 EDTA/ml, 3% (w/v) butanamide and 1 μM Quinoline-Val-Asp-CH2-OPH (caspase inhibitor).
All stabilized blood samples were set up in triplicates per condition and test time point. At time point 0 (reference), immediately after mixing the stabilization solution and blood, plasma was generated and the circulating extracellular DNA was extracted. The residual stabilized blood sample was stored for three days and six days at room temperature.
Plasma was generated from the stabilized and unstabilized (EDTA) blood samples by inverting the blood containing tubes for four times. Then, the tubes were centrifuged for 10 minutes at 1900×g at 4° C. 2.5 ml of the plasma fraction was transferred into a fresh 15 ml falcon tube and centrifuged for 10 minutes at 16.000×g at 4° C. 2 ml of the respectively cleared plasma was used for extracellular nucleic acid isolation using the QIAamp circulating nucleic acid kit (QIAGEN) according to the manufacturer's instructions.
The isolated extracellular DNA was analyzed using two different qPCR assays, targeting different fragment lengths of the 18S ribosomal DNA:
18S ribosomal DNA: 66 bp amplicon 18S ribosomal DNA: 500 bp amplicon
Cycle threshholds of the individual samples were translated into amount of gDNA in the eluate, according to a gDNA standard curve. The gDNA amount of the storage time points was compared to the time zero gDNA level from the same donor and is shown as fold increase in the figures. […]

In the case of “Ac-Ala-Ala-Val-Ala-Leu-Leu-Pro-Ala-Val-Leu-Leu-Ala-Leu-Leu-Ala-Pro-Asp-Glu-Val-Asp-CHO (Ac-AAVALLPAVLLALLAPDEVD-aldehyde; SMILES CC(=O)N[C@@H](C)C(=O)N[C@@H](C)C(=O)N[C@H](C(=O)N[C@@H](C)C(=O)N[C@@H](CC(C)C)C(=O)N[C@@H](CC(C)C)C(=O)N1CCC[C@H]1C(=O)N[C@@H](C)C(=O)N[C@H](C(=O)N[C@@H](CC(C)C)C(=O)N[C@@H](CC(C)C)C(=O)N[C@@H](C)C(=O)N[C@@H](CC(C)C)C(=O)N[C@@H](CC(C)C)C(=O)N[C@@H](C)C(=O)N1CCC[C@H]1C(=O)N[C@@H](CC(=O)O)C(=O)N[C@@H](CCC(=O)O)C(=O)N[C@H](C(=O)N[C@H](C=O)CC(=O)O)C(C)C)C(C)C)C(C)C) [Caspase-3 Inhibitor I, Cell-Permeable]”, the Ki (caspase-3) is given as less than 1 nM.
For “Ac-Tyr-Val-Ala-Asp-CMK [Caspase-1 Inhibitor II]”, the Ki (caspase-1) is listed as 0.76 nM.
In the case of `CC(C)C(NC(=O)c1ccc2ccccc2n1)C(=O)NC(CC(=O)O)C(=O)COc1c(F)cccc1F` (stereo not drawn) [Q-VD-OPh, Quinoline-Val-Asp-CH2-OPH], the “increase of DNA from day 0 to day 3 or 7” value (whole blood samples [1]) is given as “reduced increase of DNA”, the “ladder-like pattern of bands (release and fragmentation of genomic DNA) compared to controls” value (whole blood samples [2]) is given as “significantly reduced ladder-like patterns” and the toxicity to cells (cells) is given as “not toxic to cells”.
In the case of “Ac-Ala-Ala-Val-Ala-Leu-Leu-Pro-Ala-Val-Leu-Leu-Ala-Leu-Leu-Ala-Pro-Tyr-Val-Ala-Asp-CHO (Ac-AAVALLPAVLLALLAPYVAD-aldehyde; SMILES CC(=O)N[C@@H](C)C(=O)N[C@@H](C)C(=O)N[C@H](C(=O)N[C@@H](C)C(=O)N[C@@H](CC(C)C)C(=O)N[C@@H](CC(C)C)C(=O)N1CCC[C@H]1C(=O)N[C@@H](C)C(=O)N[C@H](C(=O)N[C@@H](CC(C)C)C(=O)N[C@@H](CC(C)C)C(=O)N[C@@H](C)C(=O)N[C@@H](CC(C)C)C(=O)N[C@@H](CC(C)C)C(=O)N[C@@H](C)C(=O)N1CCC[C@H]1C(=O)N[C@@H](Cc1ccc(O)cc1)C(=O)N[C@H](C(=O)N[C@@H](C)C(=O)N[C@H](C=O)CC(=O)O)C(C)C)C(C)C)C(C)C) [Caspase-1 Inhibitor I, Cell-Permeable]”, the Ki (caspase-1) is listed as 1 nM.
For `OC(CN1CCNCC1)Cn1c2ccc(Br)cc2c2cc(Br)ccc21` (racemic) [Bax Channel Blocker, (±)-1-(3,6-Dibromocarbazol-9-yl)-3-piperazin-1-yl-propan-2-ol, bis TFA], the “inhibition of Bid-induced cytochrome c release” value (HeLa cell mitochondria) is given as “cyctochrome c release from HeLa cell mitochondria (~80%”.
For `O=C(C=Cc1ccc(C=CC(=O)Nc2ccc(C3=NCCN3)cc2)cc1)Nc1ccc(C2=NCCN2)cc1` [GW 4869], the IC50 [3] is listed as roughly 1000 nM and the “protection against TNF-α or diamine-induced cell death” value (MCF7 breast cancer cells) is listed as “specific PLC. Reported to offer complete protection against TNF-α”.
For `CC(C)C[C@H](NC(=O)OCc1ccccc1)C(=O)N[C@@H](CC(C)C)C(=O)N[C@@H](Cc1ccc(O)cc1)C(=O)CF` [Calpain Inhibitor IV, Z-Leu-Leu-Tyr-CH2F] (HELM PEPTIDE1{[O=C(OCc1ccccc1)[*:2]].L.L.Y.[FC[*:1]]}$$$$V2.0), the k2 (calpain II; irreversible inhibitor) is given as 28,900 M−1s−1). Also acts as an inhibitor of cathepsin L (k2 = and the k2 (cathepsin L) is given as 680,000 M−1s−1).
In the case of `CC(C)C(NC(=O)OCc1ccccc1)C(=O)NC(C=O)Cc1ccccc1` (stereo not drawn) [Calpain Inhibitor III, Z-Val-Phe-CHO] (Cbz-Val-Phe-aldehyde; configuration not given here), the Ki (calpain II) is given as 8 nM.
For `N=c1sc2c(n1CC(=O)c1ccc([N+](=O)[O-])cc1)CCCC2` [Pifithrin-α, p-Nitro], the t½ [4] is listed as “biological systems (t½ = 8 h in neuron culture medium at 37° C.)”.
With `CCCC(N)=O` [butanamide] the “stabilization capabilities compared to DMAA” value (white blood cells; Example 2, 2.5, 3, 3.5% (w/v) butanamide with 1 μM caspase inhibitor and EDTA vs 5% DMAA) was “at least comparable stabilization capabilities to DMAA”, the “stabilization capabilities compared to the stabilization solution comprising DMAA” value (white blood cells; Example 3, 0.5, 1.5, 2% butanamide in combination with 2.5, 1.5, 1% DMPA, 1 μM caspase inhibitor, EDTA) was “comparable stabilization capabilities” and the “increase in 18S rDNA” value (white blood cells; Example 4, 0.5, 1.5, 2.5% (w/v) butanamide with 1 μM caspase inhibitor and 7.2 mg K2EDTA/ml) was “significantly reduced increase in 18S rDNA”.
